One experiment concerns prostate line LNCap. Kind of experiment: In vitro cell culture growth assay (MTS), LNCap. The class given is cell-based. The note with it: Homo sapiens, LNCaP, 72 h, LNCap cells, three days after drug treatment. The procedure, abridged: (§1)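 Following a one-day attachment period, cells received inhibitors for 3 days. MTS metabolism by viable cells was quantified at 490 nm absorbance and converted to percent of same-plate vehicle control growth.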

The target of a further experiment is T1, Human mTOR (FLAG-TOR) (Homo sapiens, UniProt P42345).
T1 construct: FLAG
Kind of experiment: Human mTOR kinase assay with purified enzyme, DELFIA format. The class given is biochemical. An outline of the steps:
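Purified FLAG-mTOR in HEPES pH 7.4 buffer with 10 mM MnCl2 was preincubated with inhibitor and reacted 2 h at room temperature with His6-S6K substrate, then stopped with EDTA/EGTA. Phospho-T389 S6K detected by DELFIA with Eu-labelled antibody (40 ng/mL) after plate capture; inhibition computed from signal.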

The subject of a further experiment is breast line MDA468. The experiment is described as follows: In vitro cell culture growth assay (MTS), MDA468. It counts as cell-based. The following applies: Homo sapiens, 72 h, MDA468 cells, three days after drug treatment. The procedure, abridged:
as §1

In experiment [1] the target is T2, PI3K (Homo sapiens, UniProt P48736).
T2 construct: PI3 Kinase γ IC50; other: PI3 Kinase γ; other: PI3 Kinase γ isoform, fluorescence polarization
T2 sequence (P48736 whole entry, canonical isoform): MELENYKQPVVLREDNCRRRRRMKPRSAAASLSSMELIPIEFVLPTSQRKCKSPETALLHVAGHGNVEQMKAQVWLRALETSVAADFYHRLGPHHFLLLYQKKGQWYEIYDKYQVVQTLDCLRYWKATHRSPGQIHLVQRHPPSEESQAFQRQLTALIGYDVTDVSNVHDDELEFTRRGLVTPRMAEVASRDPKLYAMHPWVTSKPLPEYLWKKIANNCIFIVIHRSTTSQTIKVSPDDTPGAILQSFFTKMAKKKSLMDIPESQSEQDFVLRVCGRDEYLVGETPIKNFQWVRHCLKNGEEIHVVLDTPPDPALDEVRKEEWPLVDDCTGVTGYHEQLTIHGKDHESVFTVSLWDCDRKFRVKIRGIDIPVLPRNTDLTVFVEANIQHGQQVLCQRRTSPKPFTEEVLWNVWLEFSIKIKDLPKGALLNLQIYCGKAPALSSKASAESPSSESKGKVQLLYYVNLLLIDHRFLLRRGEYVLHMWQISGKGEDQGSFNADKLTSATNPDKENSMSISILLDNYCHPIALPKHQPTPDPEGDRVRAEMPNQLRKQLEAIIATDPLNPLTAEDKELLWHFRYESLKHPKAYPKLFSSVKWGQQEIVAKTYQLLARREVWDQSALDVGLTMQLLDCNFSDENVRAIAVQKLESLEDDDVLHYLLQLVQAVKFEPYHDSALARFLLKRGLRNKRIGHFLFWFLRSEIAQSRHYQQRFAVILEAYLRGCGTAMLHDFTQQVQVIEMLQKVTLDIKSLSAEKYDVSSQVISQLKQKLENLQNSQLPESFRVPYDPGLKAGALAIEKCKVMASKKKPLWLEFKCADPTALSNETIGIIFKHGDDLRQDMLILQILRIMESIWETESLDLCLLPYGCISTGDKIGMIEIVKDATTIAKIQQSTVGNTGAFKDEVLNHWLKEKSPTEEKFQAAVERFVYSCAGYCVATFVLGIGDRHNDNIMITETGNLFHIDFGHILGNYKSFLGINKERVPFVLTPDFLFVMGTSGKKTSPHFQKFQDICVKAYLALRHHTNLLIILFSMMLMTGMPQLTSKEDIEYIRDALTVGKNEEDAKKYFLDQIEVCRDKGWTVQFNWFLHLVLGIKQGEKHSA
Kind of experiment: Fluorescence polarization assay for PI3K. The class given is biochemical. The following applies: read-out: PI3 Kinase γ IC50. An outline of the steps: (§2)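 PI3K was preincubated with compound (final DMSO 1%), and the reaction was started with PIP2/ATP substrate and run 30–60 min. It was stopped with a detector mix giving 10 nM red probe and 70 nM GST-GRP.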

In experiment [2] the target is T3, PI3K (Homo sapiens, UniProt P42336).
T3 construct: PI3 Kinase α IC50; other: PI3 Kinase α; other: PI3 Kinase α isoform, fluorescence polarization
T3 sequence (P42336 whole entry, canonical isoform): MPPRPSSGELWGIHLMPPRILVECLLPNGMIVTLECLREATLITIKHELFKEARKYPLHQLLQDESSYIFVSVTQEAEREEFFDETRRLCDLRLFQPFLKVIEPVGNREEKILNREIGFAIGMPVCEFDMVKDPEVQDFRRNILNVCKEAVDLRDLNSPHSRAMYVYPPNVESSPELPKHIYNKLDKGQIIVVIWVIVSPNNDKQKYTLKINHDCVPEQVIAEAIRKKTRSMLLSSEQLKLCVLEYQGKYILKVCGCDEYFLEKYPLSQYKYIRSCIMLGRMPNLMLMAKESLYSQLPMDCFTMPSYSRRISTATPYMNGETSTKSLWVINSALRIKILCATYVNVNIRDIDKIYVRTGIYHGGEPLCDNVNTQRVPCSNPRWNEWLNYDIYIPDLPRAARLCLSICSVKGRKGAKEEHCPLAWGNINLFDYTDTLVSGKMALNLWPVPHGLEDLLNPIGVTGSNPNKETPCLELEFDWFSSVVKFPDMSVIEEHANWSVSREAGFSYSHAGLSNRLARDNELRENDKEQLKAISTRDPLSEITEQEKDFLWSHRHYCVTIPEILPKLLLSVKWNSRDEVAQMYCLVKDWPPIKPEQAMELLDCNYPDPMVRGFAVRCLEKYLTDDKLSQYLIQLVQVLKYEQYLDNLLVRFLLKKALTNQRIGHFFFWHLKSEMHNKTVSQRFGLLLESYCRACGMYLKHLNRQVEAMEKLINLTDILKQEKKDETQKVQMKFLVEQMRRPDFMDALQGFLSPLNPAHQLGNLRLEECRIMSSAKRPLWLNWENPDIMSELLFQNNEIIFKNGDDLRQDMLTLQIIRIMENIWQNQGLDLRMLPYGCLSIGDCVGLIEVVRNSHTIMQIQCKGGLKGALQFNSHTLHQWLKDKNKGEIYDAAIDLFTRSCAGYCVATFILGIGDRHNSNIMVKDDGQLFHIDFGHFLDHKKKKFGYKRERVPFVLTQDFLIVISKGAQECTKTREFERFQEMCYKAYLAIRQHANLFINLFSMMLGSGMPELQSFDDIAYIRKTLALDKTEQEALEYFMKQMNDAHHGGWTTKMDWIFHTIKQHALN
The experiment is described as follows: Fluorescence polarization assay for PI3K. The note with it: read-out: PI3 Kinase α IC50. The class given is biochemical. An outline of the steps: as §2
In general terms: Fluorescence polarisation rises when a labelled molecule tumbles more slowly, as on binding a larger partner.

Where [3] appears, read: purified human mTOR enzyme, DELFIA format.
[4] abbreviates: PI3 Kinase γ isoform, fluorescence polarization.
The mark [5] stands for this setting: PI3 Kinase α isoform, fluorescence polarization.

Where two headings read alike, the source gives them in different places.

Broadly, the IC50 is the point on the concentration scale where inhibition reaches its midpoint.

For `CCNC(=O)Nc1ccc(-c2nc(N3CC4CCC(C3)O4)c3cnn(C4CCN(Cc5cccnc5)CC4)c3n2)cc1` [Example 15, 1-ethyl-3-(4-{4-(8-oxa-3-azabicyclo[3.2.1]oct-3-yl)-1-[1-(pyridin-3-ylmethyl)piperidin-4-yl]-1H-pyrazolo[3,4-d]pyrimidin-6-yl}phenyl)urea], the IC50 is 4 nM with prostate line LNCap; 0.31 nM against Human mTOR (FLAG-TOR); 85 nM in the experiment with breast line MDA468; more than 10000 nM at PI3K [1] (PI3 Kinase γ); 2280 nM on PI3K [2] (PI3 Kinase α).
`O=C(Nc1ccc(-c2nc(N3CC4CCC(C3)O4)c3sccc3n2)cc1)Nc1cccnc1` [Example 412, 1-{4-[4-(8-oxa-3-azabicyclo[3.2.1]oct-3-yl)thieno[3,2-d]pyrimidin-2-yl]phenyl}-3-pyridin-3-ylurea]: the IC50 is 27 nM in the experiment on prostate line LNCap; 0.28 nM on Human mTOR (FLAG-TOR) (setting [3]); 72 nM with breast line MDA468; 2360 nM at PI3K [1] (setting [4]); 119 nM at PI3K [2] (setting [5]).
Regarding `COC(=O)N1CCC(n2ncc3c(N4CC5CCC(C4)O5)nc(-c4ccc(NC(=O)Nc5cccnc5)cc4)nc32)CC1` [Example 13, methyl 4-[4-(8-oxa-3-azabicyclo[3.2.1]oct-3-yl)-6-{4-[(pyridin-3-ylcarbamoyl)amino]phenyl}-1H-pyrazolo[3,4-d]pyrimidin-1-yl]piperidine-1-carboxylate], the IC50 with prostate line LNCap was 15 nM; at Human mTOR (FLAG-TOR), 0.1 nM; in the experiment with breast line MDA468, 75 nM; on PI3K [1] (PI3 Kinase γ), 6840 nM; at PI3K [2] (PI3 Kinase α), 613 nM.
The like results for `CC(C)n1ncc2c(N3CC4CCC(C3)O4)nc(-c3ccc(NC(=O)OCCO)cc3)nc21` [Example 144, 2-hydroxyethyl {4-[1-isopropyl-4-(8-oxa-3-azabicyclo[3.2.1]oct-3-yl)-1H-pyrazolo[3,4-d]pyrimidin-6-yl]phenyl}carbamate] were, in that order, 23 nM, 0.27 nM, 270 nM, 11000 nM and 831 nM.
`Oc1cccc(-c2nc(N3CC4CCC(C3)O4)c3cnn(-c4ccccc4)c3n2)c1` [Example 102, 3-[4-(8-oxa-3-azabicyclo[3.2.1]oct-3-yl)-1-phenyl-1H-pyrazolo[3,4-d]pyrimidin-6-yl]phenol]: the IC50 in the experiment with prostate line LNCap was found to be 1300 nM; against Human mTOR (FLAG-TOR) it was 16 nM; with breast line MDA468, 5000 nM; at PI3K [1] (PI3 Kinase γ), 7820 nM; on PI3K [2] (PI3 Kinase α) it was 1170 nM.
Consider `CN(C)CCCNC(=O)Nc1ccc(-c2nc(N3CC4CCC(C3)O4)c3cnn(C)c3n2)cc1` [Example 59, 1-[3-(dimethylamino)propyl]-3-{4-[1-methyl-4-(8-oxa-3-azabicyclo[3.2.1]oct-3-yl)-1H-pyrazolo[3,4-d]pyrimidin-6-yl]phenyl}urea], for which the IC50 was 2900 nM with prostate line LNCap; 100 nM against Human mTOR (FLAG-TOR); 8800 nM with breast line MDA468; more than 10000 nM at PI3K [1] (PI3 Kinase γ); 1700 nM at PI3K [2] (PI3 Kinase α).
Consider `O=C(NCCF)Nc1ccc(-c2nc(N3CC4CCC(C3)O4)c3cnn(C4CCC5(CC4)OCCO5)c3n2)cc1` [Example 124, 1-{4-[1-(1,4-dioxaspiro[4.5]dec-8-yl)-4-(8-oxa-3-azabicyclo[3.2.1]oct-3-yl)-1H-pyrazolo[3,4-d]pyrimidin-6-yl]phenyl}-3-(2-fluoroethyl)urea], for which the IC50 in the experiment with prostate line LNCap is 1 nM; at Human mTOR (FLAG-TOR) it was 0.225 nM; in the experiment with breast line MDA468, 20 nM; at PI3K [1] (PI3 Kinase γ) it was more than 10000 nM; on PI3K [2] (PI3 Kinase α), 5130 nM.
With `CNC(=O)Nc1ccc(-c2nc(N3CC4COC(C3)O4)c3cnn(C)c3n2)cc1` (stereo not drawn) [Example 392, 1-{4-[4-(6,8-dioxa-3-azabicyclo[3.2.1]oct-3-yl)-1-methyl-1H-pyrazolo[3,4-d]pyrimidin-6-yl]phenyl}-3-methylurea], the IC50 is 1200 nM with prostate line LNCap; 39.5 nM against Human mTOR (FLAG-TOR) (setting [3]); 4800 nM with breast line MDA468; 11000 nM on PI3K [1] (setting [4]); 582 nM at PI3K [2] (setting [5]).
As to `CC(C)OC(=O)N1CCC(n2ncc3c(N4CC5CCC(C4)O5)nc(-c4ccc(NC(=O)Nc5ccncc5)cc4)nc32)CC1` [Example 73, isopropyl 4-[4-(8-oxa-3-azabicyclo[3.2.1]oct-3-yl)-6-{4-[(pyridin-4-ylcarbamoyl)amino]phenyl}-1H-pyrazolo[3,4-d]pyrimidin-1-yl]piperidine-1-carboxylate], the IC50 in the experiment with prostate line LNCap is 0.9 nM; against Human mTOR (FLAG-TOR) it was 0.23 nM; with breast line MDA468, 9 nM; at PI3K [1] (PI3 Kinase γ), 672 nM; at PI3K [2] (PI3 Kinase α) it was 460 nM.
For `c1cncc(CN2CCC(n3ncc4c(N5CC6CCC(C5)O6)nc(-c5ccc6[nH]ccc6c5)nc43)CC2)c1` [Example 394, 6-(1H-indol-5-yl)-4-(8-oxa-3-azabicyclo[3.2.1]oct-3-yl)-1-[1-(pyridin-3-ylmethyl)piperidin-4-yl]-1H-pyrazolo[3,4-d]pyrimidine], the IC50 in the experiment with prostate line LNCap turned out to be 320 nM; against Human mTOR (FLAG-TOR) (setting [3]) it was 14.5 nM; in the experiment on breast line MDA468, 2000 nM; at PI3K [1] (setting [4]), 9500 nM; on PI3K [2] (setting [5]), 2920 nM.
In the case of `CC(C)OC(=O)N1CCC(n2ncc3c(N4CC5CCC(C4)O5)nc(-c4ccc(NC(=O)NCCF)cc4)nc32)CC1` [Example 68, isopropyl 4-[6-(4-{[(2-fluoroethyl)carbamoyl]amino}phenyl)-4-(8-oxa-3-azabicyclo[3.2.1]oct-3-yl)-1H-pyrazolo[3,4-d]pyrimidin-1-yl]piperidine-1-carboxylate], the IC50 in the experiment on prostate line LNCap was 18 nM; at Human mTOR (FLAG-TOR) it was 0.27 nM; in the experiment with breast line MDA468 it was 180 nM; at PI3K [1] (PI3 Kinase γ), more than 10000 nM; on PI3K [2] (PI3 Kinase α), 3150 nM.
The like results for `CCn1ncc2c(N3CC4CCC(C3)O4)nc(-c3ccc(NC(=O)NC4CCCCC4)cc3)nc21` [Example 227, 1-cyclohexyl-3-{4-[1-ethyl-4-(8-oxa-3-azabicyclo[3.2.1]oct-3-yl)-1H-pyrazolo[3,4-d]pyrimidin-6-yl]phenyl}urea] were, in that order, 1200 nM, 15 nM, 3200 nM, more than 10000 nM and 5940 nM.
As to `O=C(Nc1ccccc1)Nc1ccc(-c2nc(N3CC4CCC(C3)O4)c3cnn(CCO)c3n2)cc1` [Example 198, 1-{4-[1-(2-hydroxyethyl)-4-(8-oxa-3-azabicyclo[3.2.1]oct-3-yl)-1H-pyrazolo[3,4-d]pyrimidin-6-yl]phenyl}-3-phenylurea], the IC50 in the experiment with prostate line LNCap was found to be 28 nM; against Human mTOR (FLAG-TOR), 0.685 nM; in the experiment with breast line MDA468 it was 190 nM; at PI3K [1] (PI3 Kinase γ), 1930 nM; on PI3K [2] (PI3 Kinase α), 68 nM.
Consider `Cn1ncc2c(N3CC4CCC(C3)O4)nc(-c3ccc(NC(=O)Nc4ccc(N)cc4)cc3)nc21` [Example 234, 1-(4-aminophenyl)-3-{4-[1-methyl-4-(8-oxa-3-azabicyclo[3.2.1]oct-3-yl)-1H-pyrazolo[3,4-d]pyrimidin-6-yl]phenyl}urea], for which the IC50 came out at 2 nM with prostate line LNCap; 0.355 nM against Human mTOR (FLAG-TOR); 11 nM with breast line MDA468; 1100 nM on PI3K [1] (PI3 Kinase γ); 162 nM at PI3K [2] (PI3 Kinase α).
With `COC1CCC(n2ncc3c(N4CC5CCC(C4)O5)nc(-c4ccc(NC(=O)Nc5ccc(C(N)=O)cc5)cc4)nc32)CC1` (stereo not drawn) [Example 306, 4-[({4-[1-(4-methoxycyclohexyl)-4-(8-oxa-3-azabicyclo[3.2.1]oct-3-yl)-1H-pyrazolo[3,4-d]pyrimidin-6-yl]phenyl}carbamoyl)amino]benzamide], the IC50 is less than 1 nM in the experiment on prostate line LNCap; 0.079 nM at Human mTOR (FLAG-TOR) (setting [3]); 8 nM in the experiment with breast line MDA468; 1270 nM on PI3K [1] (setting [4]); 88 nM at PI3K [2] (setting [5]).
Consider `COC(=O)N1CCC(n2ncc3c(N4C5CCC4COC5)nc(-c4ccc(NC(=O)NCCF)cc4)nc32)CC1` [Example 358, methyl 4-[6-(4-{[(2-fluoroethyl)carbamoyl]amino}phenyl)-4-(3-oxa-8-azabicyclol[3.2.1]oct-8-yl)-1H-pyrazolo[3,4-d]pyrimidin-1-yl]piperidine-1-carboxylate], for which the half-inhibitory concentration (IC50) turned out to be 6 nM with prostate line LNCap; 0.495 nM against Human mTOR (FLAG-TOR) (setting [3]); 35 nM with breast line MDA468; 7930 nM on PI3K [1] (setting [4]); 7700 nM on PI3K [2] (setting [5]).
Take `CN(C)CCOc1ccc(NC(=O)Nc2ccc(-c3nc(N4CC5CCC(C4)O5)c4cnn(CCC#N)c4n3)cc2)cc1` [Example 224, 1-{4-[1-(2-cyanoethyl)-4-(8-oxa-3-azabicyclo[3.2.1]oct-3-yl)-1H-pyrazolo[3,4-d]pyrimidin-6-yl]phenyl}-3-{4-[2-(dimethylamino)ethoxy]phenyl}urea]: the IC50 turned out to be 3 nM in the experiment on prostate line LNCap; 0.745 nM on Human mTOR (FLAG-TOR); 12 nM in the experiment on breast line MDA468; 2600 nM on PI3K [1] (PI3 Kinase γ); 155 nM on PI3K [2] (PI3 Kinase α).
As to `COC(=O)N1CCC(n2ncc3c(N4C5CCC4COC5)nc(-c4ccc(NC(=O)Nc5ccccc5)cc4)nc32)CC1` [Example 360, methyl 4-[4-(3-oxa-8-azabicyclo[3.2.1]oct-8-yl)-6-{4-[(phenylcarbamoyl)amino]phenyl}-1H-pyrazolo[3,4-d]pyrimidin-1-yl]piperidine-1-carboxylate], the IC50 was found to be 10 nM in the experiment with prostate line LNCap; 0.425 nM on Human mTOR (FLAG-TOR) (setting [3]); 40 nM with breast line MDA468; 2150 nM at PI3K [1] (setting [4]); 1460 nM on PI3K [2] (setting [5]).

The values are drawn from patent US8129371B2, “Thienopyrimidine and pyrazolopyrimidine compounds and their use as mTOR kinase and PI3 kinase inhibitors” (Wyeth LLC, priority 2007, dated 2012).
